In patent publication EP2487171A1, “Dihydrobenzopyran, thiochroman, tetrahydroquinoleine and tetrahydronaphthalene derivatives and their use in anti-cancer therapy” (Université de Liège, priority 2011, dated 2012) one finds IC50 data, which are given here for 7 molecules.

Holding throughout (assay): MTT colorimetric assay, overall cell growth
(Tetrazolium assays rely on reduction of a dye to a coloured formazan, in cell work by metabolically active cells.)

In assay [1] the test system is U373. Format: cell-based. Particulars: Homo sapiens, U373 MG; U373 cells, 72 hours of incubation; read-out: IC50 (µM) In Vitro Growth Inhibitory Concentrations (MTT Colorimetric Assay) U373.
Assay [2] deals with Hs683. Format: cell-based. The conditions noted are these: Homo sapiens, Hs 683; Hs683 cells, 72 hours of incubation; read-out: IC50 (µM) In Vitro Growth Inhibitory Concentrations (MTT Colorimetric Assay) Hs683.
Assay [3] relates to T98G. Particulars: Homo sapiens, 72 h, read-out: IC50 (µM) In Vitro Growth Inhibitory Concentrations (MTT Colorimetric Assay) T98G.

Regarding `CC(C)(C)OC(=O)Nc1ccc2c(c1)C(NC(=O)Nc1ccccc1Cl)CCO2` (racemic) [Example 1, R/S-N-2-chlorophenyl-N'-(6-tert-butoxycarbonylamino-3,4-dihydro-2H-1-benzopyran-4-yl)urea], the IC50 in assay [1] was found to be 26 µM; in assay [2], 23 µM; in assay [3] it was 24 µM.

On to `CC(C)(C)OC(=O)Nc1ccc2c(c1)C(NC(=O)Nc1cccc(Cl)c1)CCO2` (racemic) [Example 2, R/S-N-3-chlorophenyl-N'-(6-tert-butoxycarbonylamino-3,4-dihydro-2H-1-benzopyran-4-yl)urea], for which the results for the IC50 in assay [1], in assay [2] and in assay [3] were 19 µM, 28 µM and 29 µM, respectively.

Consider `CC(C)(C)OC(=O)Nc1ccc2c(c1)C(NC(=O)Nc1ccc(Cl)cc1)CCO2` (racemic) [Example 3, R/S-N-4-chlorophenyl-N'-(6-tert-butoxycarbonylamino-3,4-dihydro-2H-1-benzopyran-4-yl)urea], for which the IC50 in assay [1] was 11 µM; in assay [2], over 100 µM; in assay [3], over 100 µM.

For `CC(C)(C)OC(=O)Nc1ccc2c(c1)C(NC(=O)Nc1ccccc1C#N)CCO2` (racemic) [Example 4, R/S-N-2-cyanophenyl-N'-(6-tert-butoxycarbonylamino-3,4-dihydro-2H-1-benzopyran-4-yl)urea], the IC50 amounted to 53 µM in assay [1], 44 µM in assay [2] and 65 µM in assay [3].

For `CC(C)(C)OC(=O)Nc1ccc2c(c1)C(NC(=O)Nc1cccc(C#N)c1)CCO2` (racemic) [Example 5, R/S-N-3-cyanophenyl-N'-(6-tert-butoxycarbonylamino-3,4-dihydro-2H-1-benzopyran-4-yl)urea], the IC50 in assay [1] was found to be 29 µM; in assay [2] it was 25 µM; in assay [3], 38 µM.

On to `CC(C)(C)OC(=O)Nc1ccc2c(c1)C(NC(=O)Nc1ccc(C#N)cc1)CCO2` (racemic) [Example 6, R/S-N-4-cyanophenyl-N'-(6-tert-butoxycarbonylamino-3,4-dihydro-2H-1-benzopyran-4-yl)urea], for which the IC50 in assay [1] worked out at 42 µM; in assay [2], 30 µM; in assay [3], 39 µM.

Consider `CC(C)(C)OC(=O)Nc1ccc2c(c1)C(NC(=O)Nc1ccccc1Cl)CC(C)(C)O2` (racemic) [Example 35, R/S-N-2-chlorophenyl-N'-(6-tert-butoxycarbonylamino-3,4-dihydro-2,2-dimethyl-2H-1-benzopyran-4-yl)urea], for which the IC50 was determined as 59 µM in assay [1], 34 µM in assay [2] and 100 µM in assay [3].
